Measured values taken from patent US20240270715A1, “INHIBITORS OF TRANSGLUTAMINASES” (ZEDIRA GMBH, priority 2021, published 2024).

What was measured:
[1] = Log D by shake flask method (octanol / PBS pH 7.4, HPLC); type: physicochemical; conditions: octanol / PBS pH 7.4, shake flask; read-out: logD
Outline: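 Shake-flask partitioning of compound between octanol and PBS at pH 7.4, with phase concentrations quantified by HPLC. The value reported is Log D.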

[2] = Caco-2 permeability assay (CacoReady kit); type: in vitro ADME; conditions: human
Outline: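 Read-out is the permeability coefficient Papp, obtained from transport across a Caco-2 barrier prepared from a ready-to-use kit following the manufacturer's instructions.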

[3] = biological target: T1, recombinant human transglutaminase 2 (Homo sapiens, UniProt P21980); assay: Transglutaminase assay: incorporation of dansylcadaverine into dimethylcasein (DCC-assay); type: biochemical; conditions: recombinant human TG2 10 nM, dansylcadaverine/dimethylcasein; read-out: IC50 TG2
T1 sequence (P21980 1-687): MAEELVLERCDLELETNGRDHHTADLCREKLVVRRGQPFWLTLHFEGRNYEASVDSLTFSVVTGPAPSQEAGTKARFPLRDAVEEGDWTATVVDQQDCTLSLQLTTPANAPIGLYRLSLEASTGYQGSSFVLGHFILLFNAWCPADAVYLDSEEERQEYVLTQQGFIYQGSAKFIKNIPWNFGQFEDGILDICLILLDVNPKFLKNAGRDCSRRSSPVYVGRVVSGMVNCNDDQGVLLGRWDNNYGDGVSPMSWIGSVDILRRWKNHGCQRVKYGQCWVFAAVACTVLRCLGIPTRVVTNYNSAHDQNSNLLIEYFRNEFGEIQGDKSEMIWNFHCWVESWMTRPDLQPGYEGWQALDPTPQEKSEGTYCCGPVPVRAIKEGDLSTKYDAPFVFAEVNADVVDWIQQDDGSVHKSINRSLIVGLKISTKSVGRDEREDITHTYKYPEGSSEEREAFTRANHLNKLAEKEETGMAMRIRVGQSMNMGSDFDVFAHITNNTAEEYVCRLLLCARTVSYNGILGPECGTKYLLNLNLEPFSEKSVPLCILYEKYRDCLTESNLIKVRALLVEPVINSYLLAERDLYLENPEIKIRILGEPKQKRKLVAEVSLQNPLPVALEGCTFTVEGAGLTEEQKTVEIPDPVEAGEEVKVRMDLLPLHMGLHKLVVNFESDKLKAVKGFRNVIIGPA
Outline: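 Recombinant human TG2 (10 nM final) incorporates dansylcadaverine (16.7 μM) into N,N-dimethylcasein (4 μM) in Tris-HCl buffer, pH 8.0, with 10 mM CaCl2 and 10 mM glutathione. Fluorescence (λex 330, λem 500 nm) followed 30 min. The slope between 20–30 min gives activity versus DMSO control, and IC50 comes from the concentration–activity plot.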

| SMILES | logD [1] | Papp [2] | IC50 [3] |
| --- | --- | --- | --- |
| CCNC(=O)C(=O)CC[C@H](NC(=O)c1[nH]c2ccccc2c1C)C(=O)Nc1cccn(CC(=O)NC2C3CC4CC(C3)CC2C4)c1=O (stereo partly drawn) [Compound I-37, (S)-N1-ethyl-N6-(1-(2-(2-adamantylamino)-2-oxoethyl)-2-oxo-1,2-dihydropyridin-3-yl)-5-(3-methyl-1H-indole-2-carboxamido)-2-oxohexanediamide] | 3 to 5 | 1 to 10 ×10⁻⁶ cm/s | < 150 nM |
| CCNC(=O)C(=O)CC[C@H](NC(=O)c1nc2ccccc2[nH]1)C(=O)Nc1cccn(CC(=O)NC2C3CC4CC(C3)CC2C4)c1=O (stereo partly drawn) [Compound I-38, (S)-2-(1H-benzo[d]imidazole-2-carboxamido)-N6-ethyl-N1-(1-(2-(2-adamantylamino)-2-oxoethyl)-2-oxo-1,2-dihydropyridin-3-yl)-5-oxohexanediamide] | 3 to 5 | < 1 ×10⁻⁶ cm/s | < 150 nM |
| CCNC(=O)C(=O)CC[C@H](NC(=O)C1Cc2ccccc2C1)C(=O)Nc1cccn(CC(=O)NC2C3CC4CC(C3)CC2C4)c1=O (stereo partly drawn) [Compound I-39, (S)-2-(2,3-dihydro-1H-indene-2-carboxamido)-N6-ethyl-N1-(1-(2-(2-adamantylamino)-2-oxoethyl)-2-oxo-1,2-dihydropyridin-3-yl)-5-oxohexanediamide] | 3 to 5 | 1 to 10 ×10⁻⁶ cm/s | < 150 nM |
| CCNC(=O)C(=O)CC[C@H](NC(=O)c1sc(C(F)(F)F)nc1C)C(=O)Nc1cccn(CC(=O)NC2C3CC4CC(C3)CC2C4)c1=O (stereo partly drawn) [Compound I-40, (S)-N1-ethyl-N6-(1-(2-(2-adamantylamino)-2-oxoethyl)-2-oxo-1,2-dihydropyridin-3-yl)-5-(4-methyl-2-(trifluoromethyl)thiazole-5-carboxamido)-2-oxohexanediamide] | 1 to 3 | 1 to 10 ×10⁻⁶ cm/s | < 150 nM |
| CCNC(=O)C(=O)CC[C@H](NC(=O)c1sc(C(F)(F)F)nc1Br)C(=O)Nc1cccn(CC(=O)NC2C3CC4CC(C3)CC2C4)c1=O (stereo partly drawn) [Compound I-41, (S)-2-(4-bromo-2-(trifluoromethyl)thiazole-5-carboxamido)-N6-ethyl-N1-(1-(2-(2-adamantylamino)-2-oxoethyl)-2-oxo-1,2-dihydropyridin-3-yl)-5-oxohexanediamide] | 1 to 3 | 1 to 10 ×10⁻⁶ cm/s | < 150 nM |
| CCNC(=O)C(=O)CC[C@H](NC(=O)c1sc(-c2ccccc2)nc1C)C(=O)Nc1cccn(CC(=O)NC2C3CC4CC(C3)CC2C4)c1=O (stereo partly drawn) [Compound I-42, (S)-N1-ethyl-N6-(1-(2-(2-adamantylamino)-2-oxoethyl)-2-oxo-1,2-dihydropyridin-3-yl)-5-(4-methyl-2-phenylthiazole-5-carboxamido)-2-oxohexanediamide] | 3 to 5 | 1 to 10 ×10⁻⁶ cm/s | 150 to 600 nM |
| CCNC(=O)C(=O)CC[C@H](NC(=O)c1sc(Br)cc1C)C(=O)Nc1cccn(CC(=O)NC2C3CC4CC(C3)CC2C4)c1=O (stereo partly drawn) [Compound I-43, (S)-2-(5-bromo-3-methylthiophene-2-carboxamido)-N6-ethyl-N1-(1-(2-(2-adamantylamino)-2-oxoethyl)-2-oxo-1,2-dihydropyridin-3-yl)-5-oxohexanediamide] | 3 to 5 | 1 to 10 ×10⁻⁶ cm/s | < 150 nM |
| CCNC(=O)C(=O)CC[C@H](NC(=O)c1sc(Br)cc1Br)C(=O)Nc1cccn(CC(=O)NC2C3CC4CC(C3)CC2C4)c1=O (stereo partly drawn) [Compound I-44, (S)-2-(3,5-dibromothiophene-2-carboxamido)-N6-ethyl-N1-(1-(2-(2-adamantylamino)-2-oxoethyl)-2-oxo-1,2-dihydropyridin-3-yl)-5-oxohexanediamide] | 3 to 5 | 1 to 10 ×10⁻⁶ cm/s | < 150 nM |
| CCNC(=O)C(=O)CC[C@H](NC(=O)c1oc(Br)cc1C)C(=O)Nc1cccn(CC(=O)NC2C3CC4CC(C3)CC2C4)c1=O (stereo partly drawn) [Compound I-45, (S)-2-(5-bromo-3-methylfuran-2-carboxamido)-N6-ethyl-N1-(1-(2-(2-adamantylamino)-2-oxoethyl)-2-oxo-1,2-dihydropyridin-3-yl)-5-oxohexanediamide] | 3 to 5 | 1 to 10 ×10⁻⁶ cm/s | < 150 nM |
